Experimental data as given in PubChem BioAssay AID1919005 (Molecular Pharmacology Branch, DTP, NCI, 2023).
Several values for one entry are separate records, joined by “and”; a condition that tells them apart may be missing. Identical values can stand only once.

Test system: 855422-203-R-J1-PDC complex spheroid growth
Experiment: Anticancer human tumor 855422-203-R-J1-PDC patient-derived bladder carcinoma cell line growth inhibition [AhR]
Details: for viability, T/C: stronger effect = lower value
Procedure, shortened: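 Agents were dosed in half-log steps down from roughly clinical Cmax, or from 10 microM where Cmax was unknown, alone and with AhR antagonists. Read-out: percent test/control growth of tumor spheroids containing HUVEC and MSC stromal cells.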

[1] = curve of first compound, second compound 0.1 µM
[2] = curve of first compound, second compound 0.316 µM
[3] = curve of first compound, second compound 1 µM
[4] = curve of first compound, second compound 3.16 µM
[5] = curve of first compound, second compound 10 µM
[6] = second compound 0.1 µM, first compound 0.0316 µM
[7] = second compound 0.1 µM, first compound 0.1 µM
[8] = second compound 0.1 µM, first compound 0.316 µM
[9] = second compound 0.1 µM, first compound 1 µM
[10] = second compound 0.1 µM, first compound 3.16 µM
[11] = second compound 0.1 µM, first compound 10 µM
[12] = second compound 0.316 µM, first compound 0.0316 µM
[13] = second compound 0.316 µM, first compound 0.1 µM
[14] = second compound 0.316 µM, first compound 0.316 µM
[15] = second compound 0.316 µM, first compound 1 µM
[16] = second compound 0.316 µM, first compound 3.16 µM
[17] = second compound 0.316 µM, first compound 10 µM
[18] = second compound 1 µM, first compound 0.0316 µM
[19] = second compound 1 µM, first compound 0.1 µM
[20] = second compound 1 µM, first compound 0.316 µM
[21] = second compound 1 µM, first compound 1 µM
[22] = second compound 1 µM, first compound 3.16 µM
[23] = second compound 1 µM, first compound 10 µM
[24] = second compound 3.16 µM, first compound 0.0316 µM
[25] = second compound 3.16 µM, first compound 0.1 µM
[26] = second compound 3.16 µM, first compound 0.316 µM
[27] = second compound 3.16 µM, first compound 1 µM
[28] = second compound 3.16 µM, first compound 3.16 µM
[29] = second compound 3.16 µM, first compound 10 µM
[30] = second compound 10 µM, first compound 0.0316 µM
[31] = second compound 10 µM, first compound 0.1 µM
[32] = second compound 10 µM, first compound 0.316 µM
[33] = second compound 10 µM, first compound 1 µM
[34] = second compound 10 µM, first compound 3.16 µM
[35] = second compound 10 µM, first compound 10 µM
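Further: spheroids exposed to agents for seven days before readout.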
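Wherever viability, T/C is given: percent of DMSO vehicle control luminescence viability.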

Compound	IC50 [1] [nM]	IC50 [2] [nM]	IC50 [3] [nM]	IC50 [4] [nM]	IC50 [5] [nM]	viability, T/C [6] [%]	viability, T/C [7] [%]	viability, T/C [8] [%]	viability, T/C [9] [%]	viability, T/C [10] [%]	viability, T/C [11] [%]	viability, T/C [12] [%]	viability, T/C [13] [%]	viability, T/C [14] [%]	viability, T/C [15] [%]	viability, T/C [16] [%]	viability, T/C [17] [%]	viability, T/C [18] [%]	viability, T/C [19] [%]	viability, T/C [20] [%]	further results
COc1cccc2c1C(=O)c1c(O)c3c(c(O)c1C2=O)CC(O)(C(=O)CO)CC3OC1CC(N)C(O)C(C)O1 (configuration not stated) + Cc1ccccc1N=Nc1ccc(NC(=O)c2ccnn2C)c(C)c1	< 31.6	< 31.6	< 31.6	< 31.6	< 31.6	47	32.6	7.99	2.76	2.93	5.62	32	24.1	6.58	2.77	2.16	3.66	45.6	25.8	6.31	viability, T/C [21]: 2.89%; viability, T/C [22]: 2.5%; viability, T/C [23]: 4.52%; viability, T/C [24]: 39.9%; viability, T/C [25]: 26.4%; viability, T/C [26]: 4.8%; viability, T/C [27]: 3.4%; viability, T/C [28]: 1.63%; viability, T/C [29]: 3.98%; viability, T/C [30]: 39.6%; viability, T/C [31]: 29.7%; viability, T/C [32]: 6.61%; viability, T/C [33]: 2.6%; viability, T/C [34]: 2.02%; viability, T/C [35]: 3.27%
COc1cc(C2c3cc4c(cc3C(OC3OC5COC(C)OC5C(O)C3O)C3COC(=O)C23)OCO4)cc(OC)c1O (configuration not stated) + Cc1cncc(-c2nc(NCCc3c[nH]c4ccccc34)c3ncn(C(C)C)c3n2)c1	372	207	207	173	< 31.6	85.9	85.5	55.4	14.8	9.41	3.49	88.4	83.7	30.2	15	8.46	3.99	83.8	79.7	32.5	viability, T/C [21]: 14.4%; viability, T/C [22]: 8.33%; viability, T/C [23]: 6.08%; viability, T/C [24]: 76.8%; viability, T/C [25]: 73.7%; viability, T/C [26]: 24.4%; viability, T/C [27]: 13.2%; viability, T/C [28]: 6.72%; viability, T/C [29]: 4.03%; viability, T/C [30]: 9.82%; viability, T/C [31]: 11.7%; viability, T/C [32]: 1.25%; viability, T/C [33]: 0.55%; viability, T/C [34]: 1.09%; viability, T/C [35]: 2.98%
CC1COCCN1c1cc(C2(S(C)(=N)=O)CC2)nc(-c2ccnc3[nH]ccc23)n1 (configuration not stated)																					viability, T/C (compound 0.0316 µM): 93.4% and 101% and 98.8%; viability, T/C (compound 0.1 µM): 106% and 102% and 113%; viability, T/C (compound 0.316 µM): 99.9% and 101% and 88.2%; viability, T/C (compound 1 µM): 108% and 106% and 115%; viability, T/C (compound 3.16 µM): 125% and 124% and 123%; viability, T/C (compound 10 µM): 24.9% and 56.9% and 59.1%; IC50 (curve of compound): 7020 nM and > 10000 nM
